Where a name gives a salt, the structure may show the parent alone.
What was measured:
[1] = system: guinea-pig eosinophils; assay: Chemotaxis inhibition assay: LTB4-induced chemotaxis in guinea-pig eosinophils; format: cell-based; conditions: test substance 1×10^−5 M, LTB4 10^−8 M, 2 hours; for inhibition at 10 µM: Cavia porcellus, Eosinophil
Method: 1) Guinea-pig Eosinophil Preparation
Male Hartley guinea-pigs received 2 ml of equine serum (Bio-Whittaker, Inc) intraperitoneally once a week for successive 8 weeks. 48 hours after the last administration, 75 ml of physiological saline was injected into the peritoneal cavity, and the fluid was recovered and centrifuged at 400 G for 5 minutes. […] Erythrocytes in the isolated cell pellet, if any, were removed by hypotonic treatment (suspended in water for 30 seconds).
2) Chemotaxis Inhibition Assay
600 μl of LTB4 suspended in Hanks-Hepes-HSA (final concentration of 10^−8 M, Cascade Biochemical Ltd.) was placed in the lower compartment of a 24-well plate and kept at 37° C. for 30 minutes in a CO2 gas incubator. After mounting a Chemotaxicell (polycarbonate membrane, pore size 3 μm, thickness 10 μm), which served as an upper compartment, on the 24-well plate described above, 200 μl of eosinophil suspension (5×10^6 cells/ml), which had been incubated at 37° C. for 15 minutes in a thermostat chamber, was added to the upper compartment. After allowing to react for 2 hours in the CO2 gas incubator, the Chemotaxicell was removed, and 60 μl of 2% (w/v) EDTA solution in physiological saline was added to the lower compartment. After cooling on ice, the cells which underwent the chemotaxis into the lower compartment were counted using a blood cell counter (Coulter Counter (trade name)). In the procedure described above, the test substance was dissolved in N,N-dimethylformamide (DMF) and added to the upper and lower compartments at the final concentration of 10^−5 M.
% Chemotaxis inhibition=[…] [Equation 2]
The results are shown in [Table 2].

[2] = system: histamine-induced dermal vascular hyperpermeability; assay: Effect on histamine-induced dermal vascular hyperpermeability in guinea pigs; format: in vivo, guinea pig; conditions: 3 mg/kg oral administration, 1 hour before intradermal histamine, male Hartley guinea pigs; for inhibition in vivo at 3 mg/kg: Cavia porcellus
Method: Effect on Histamine-induced Dermal Vascular Hyperpermeability in Guinea Pigs
Male Hartley guinea pigs (weighing about 500 g) were used. […] After 30 minutes, the animal was hit on its head to make it unconscious, and cut at its neck to sacrifice by exsanguination. The dorsal skin was peeled and examined for the long and short diameters (mm) of each blue spot which were then multiplied to give a product, which was averaged to give a vascular permeability index. Each substance was suspended in 5% gum arabic solution, and given orally in the volume of 0.2 ml/100 g body weight 1 hour before histamine administration. Control animals received the same volume of 5% gum arabic solution. A % inhibition of this reaction was calculated according to [Equation 1].
% Inhibition of histamine-induced dermal vascular hyperpermeability=100×(1-vascular permeability index in treatment group/vascular permeability index in control group) [Equation 1]

| Structure (SMILES) | inhibition at 10 µM [1] | melting point | inhibition in vivo at 3 mg/kg [2] | Inhibition (%) of LTB4-induced chemotaxis [1] | Inhibition of histamine-induced dermal vascular hyperpermeability (%) [2] |
| --- | --- | --- | --- | --- | --- |
| O=c1[nH]c(=O)n(CCCCN2CCC(OC(c3ccccc3)c3ccccc3)CC2)c2ccccc12 [Example 2, 2,4-Dioxo-1-[4-(4-diphenylmethoxy-1-piperidinyl)butyl]-1,2,3,4-tetrahydroquinazoline] | 91% | 131 to 133 °C | 88% | – | – |
| O=c1[nH]c(=O)n(CCCCN2CCC(OC(c3ccccc3)c3ccccc3)CC2)c2ccc([N+](=O)[O-])cc12 [Example 12, 2,4-Dioxo-1-[4-(4-diphenylmethoxypiperidino)butyl]-6-nitro-1,2,3,4-tetrahydroquinazoline] | 66% | 211 to 213 °C | 80% | – | – |
| CCOC(=O)C(C)(C)n1c(=O)c2ccccc2n(CCCCN2CCC(OC(c3ccccc3)c3ccccc3)CC2)c1=O.Cl [Example 27] | – | – | – | 52% | 94% |
| COC(=O)C(C)(C)n1c(=O)c2ccccc2n(CCCCN2CCC(OC(c3ccccc3)c3ccccc3)CC2)c1=O.Cl [Example 30] | – | – | – | 77% | 88% |
| CCOC(=O)C(C)(C)n1c(=O)c2cc(F)ccc2n(CCCCN2CCC(OC(c3ccccc3)c3ccccc3)CC2)c1=O [Example 33, Ethyl 2-[1-[4-(4-diphenylmethoxypiperidino)butyl]-2,4-dioxo-6-fluoro-1,2,3,4-tetrahydroquinazolin-3-yl]isobutyrate hydrochloride] | 54% | – | 88% | – | – |
| Nc1ccc2c(c1)c(=O)[nH]c(=O)n2CCCCN1CCC(OC(c2ccccc2)c2ccccc2)CC1 [Example 40, 6-Amino-2,4-dioxo-1-[4-(4-diphenylmethoxypiperidino)butyl]-1,2,3,4-tetrahydroquinazoline] | – | 131 to 133 °C | 90% | – | – |
| O=C(O)CCn1c(=O)c2ccccc2n(CCCCN2CCC(OC(c3ccccc3)c3ccccc3)CC2)c1=O [Example 52, 2,4-Dioxo-1-[4-(4-diphenylmethoxypiperidino)butyl]-1,2,3,4-tetrahydroquinazoline-3-propionic acid] | – | 107 to 108 °C | 88% | – | – |
| O=C(O)CCCCn1c(=O)c2ccccc2n(CCCCN2CCC(OC(c3ccccc3)c3ccccc3)CC2)c1=O [Example 60, 2,4-Dioxo-1-[4-(4-diphenylmethoxypiperidino)butyl]-1,2,3,4-tetrahydroquinazoline-3-valeric acid] | 65% | – | 93% | – | – |
| N#CCCCCn1c(=O)c2ccccc2n(CCCCN2CCC(OC(c3ccccc3)c3ccccc3)CC2)c1=O [Example 93, 2,4-Dioxo-1-[4-(4-diphenylmethoxypiperidino)butyl]-1,2,3,4-tetrahydroquinazoline-3-valeronitrile] | 62% | – | 84% | – | – |
| CCOC(=O)CCCCn1c(=O)c2ccccc2n(CCCCN2CCC(OC(c3ccccc3)c3ccccc3)CC2)c1=O [Example 94, Ethyl 2,4-dioxo-1-[4-(4-diphenylmethoxypiperidino)butyl]-1,2,3,4-tetrahydroquinazoline-3-valerate hydrochloride] | – | – | 83% | – | – |
| CCOC(=O)CCCCCn1c(=O)c2ccccc2n(CCCCN2CCC(OC(c3ccccc3)c3ccccc3)CC2)c1=O.Cl [Example 95, Ethyl 2,4-dioxo-1-[4-(4-diphenylmethoxypiperidino)butyl]-1,2,3,4-tetrahydroquinazoline-3-hexanoate hydrochloride] | – | 149 to 151 °C | 85% | – | – |
| CC(C)(C(=O)O)n1c(=O)c2ccccc2n(CCCCN2CCC(OC(c3ccccc3)c3ccccc3)CC2)c1=O [Example 120, 2-[2,4-Dioxo-1-[4-(4-diphenylmethoxypiperidino)butyl]-1,2,3,4-tetrahydroquinazolin-3-yl]isobutyric acid hydrochloride] | – | – | 86% | – | – |
| CC(C)(C(=O)O)n1c(=O)c2cc(F)ccc2n(CCCCN2CCC(OC(c3ccccc3)c3ccccc3)CC2)c1=O [Example 124, 2-[2,4-Dioxo-1-[4-(4-diphenylmethoxypiperidino)butyl]-6-fluoro-1,2,3,4-tetrahydroquinazolin-3-yl]isobutyric acid hydrochloride] | – | – | 90% | – | – |
| CC(C)(C(=O)O)n1c(=O)c2cc(F)c(F)cc2n(CCCCN2CCC(OC(c3ccccc3)c3ccccc3)CC2)c1=O [Example 125, 2-[2,4-Dioxo-1-[4-(4-diphenylmethoxypiperidino)butyl]-6,7-difluoro-1,2,3,4-tetrahydroquinazolin-3-yl]isobutyric acid hydrochloride] | – | – | 81% | – | – |

— patent US6407116B1, “Nitrogenous fused-ring compounds, process for the preparation of the same, and drugs” (Takeda Chemical Industries, Inc., priority 1997, dated 2002)
